Experimental data from patent publication US20190015379A1, “USE OF DIANHYDROGALACTITOL AND ANALOGS AND DERIVATIVES THEREOF, TOGETHER WITH RADIATION, TO TREAT NON-SMALL-CELL CARCINOMA OF THE LUNG AND GLIOBLASTOMA MULTIFORME AND SUPPRESS PROLIFERATION OF CANCER STEM CELLS” (DelMar Pharmaceuticals, Inc., priority 2014, published 2019).

Assays:
[1] = tested on: CSC and non-CSC cultures derived from primary GBM tissue; experiment: Cell cycle analysis (propidium iodide staining, FACS) in primary GBM cultures; assay type: cell-based, human
Protocol: “GAPDH” refers to glyceraldehyde-3-phosphate dehydrogenase as a control. For the cell cultures, CSCs were cultured in NSA media supplemented with B27, EGF and bFGF. Non-CSCs were grown in DMEM:F12 with 10% FBS. MGMT methylation and protein expression analysis of each culture was characterized. TMZ or VAL-083 was added to the cultures in the indicated concentrations. Depending on the experiment, cells were also irradiated with 2 Gy in a Cesium irradiator. For assays, cell cycle analysis was performed with Propidium Iodide staining and FACs analysis. Cell viability was analyzed with CellTiter-Glo™ and read on a Promega GloMax™. […] In FIG. 4, “1° GBM” refers to primary glioblastoma multiforme cell cultures.
In FIG. 16, cells were treated with either increasing doses of TMZ (5, 50 100 and 200 μM) or dianhydrogalactitol (“VAL-083”) (1, 5, 25 and 100 μM) and cell cycle analysis was performed 4 days post treatment.
Additional experiments were performed to test the effect of the duration of drug administration. […] Dianhydrogalactitol was left on for the duration of the treatment.

[2] = tested on: GBM; conditions: cited from earlier work
[3] = Stability of reconstituted dianhydrogalactitol stock solution; assay type: physicochemical; conditions: 8 mg/mL in 0.9% sodium chloride for injection
Protocol: Dianhydrogalactitol (DAG) was provided as a lyophilized product at 40 mg of DAG per vial. For administration, 5 mL of 0.9% sodium chloride for injection, USP (saline) was added to yield a DAG solution with a concentration of 8 mg/mL. This stock solution was stable for 4 hours at room temperature or for 24 hours at 4° C. Further dilutions were made to prepare solutions of injection of 0.9 mg/mL (for administration of 0.18 mg/mouse in 0.2 mL; diluted from the 8 mg/mL reconstituted solution); of 0.45 mg/mL (for administration of 0.09 mg/mouse in 0.2 mL; a 1 to 2 dilution of the 0.9 mg/mL solution); and of 0.225 mg/mL (for administration of 0.045 mg/mouse in 0.2 mL; a 1 to 2 dilution of the 0.45 mg/mL solution).

[4] = Phase I/II dose-escalation study, safety (DLT, SAE, MTD); assay type: in vivo, human; conditions: for drug-related serious adverse events: dose cohorts completed to date
Text: The methodology of the study reported in this Example is as follows: An open-label, single arm Phase I/II dose-escalation study designed to evaluate the safety, tolerability, pharmacokinetics and anti-tumor activity of dianhydrogalactitol in patients with: (i) histologically confirmed initial diagnosis of primary WHO Grade IV malignant GBM, now recurrent, or (ii) progressive secondary brain tumor, having failed standard brain radiotherapy, and with brain tumor progression after at least one line of systemic therapy. The study utilizes a 3+3 dose escalation design, until the MTD or the maximum specified dose is reached. […] In Phase II, additional patients will be treated at the MTD (or other selected optimum Phase II dose) to measure tumor responses. All patients enrolled have previously been treated with surgery and/or radiation, if appropriate, and must have failed both bevacizumab and TMZ, unless contraindicated. For these studies, the following is a summary of the inclusion criteria: (1) Patients must be greater than or equal to 18 years old. (2) There is a histologically confirmed initial diagnosis of primary WHO Grade IV malignant glioma (glioblastoma), now recurrent, or progressive secondary brain tumor, the patient has failed standard brain radiotherapy, and the patient has brain tumor progression after at least one line of systemic therapy. […] (4) The patient must have a predicted life expectancy of at least 12 weeks. The following is a summary of the exclusion criteria: (1) There is a current history of neoplasm other than the entry diagnosis. Patients with previous cancers treated and cured with local therapy alone may be considered. (2) There is evidence of leptomeningeal spread of disease. […] (4) The patient had undergone prior treatment with intracerebral agents. […] (6) The patient is being administered concomitant medications that are strong inhibitors of cytochrome P450 and CYP3A up to 14 days before Cycle 1, Day 1 (pimozide, diltiazem, erythromycin, clarithromycin, and quinidine, and amiodarone up to 90 days before.
Enrollment and evaluation of Cohort 7 (40 mg/m^2) is ongoing. Higher doses may be enrolled subject to completion of mandated safety observation period with Cohort 6 (30 mg/m^2). Patients enrolled present with refractory progressive GBM and a dire prognosis. […] The primary endpoint of this portion of the study is to determine a modernized dosing regimen for advancement to registration-directed clinical trials. […] In this design, it is not possible to perform a rigorous assessment of patient benefit due to slowed tumor growth. Tumor volume is assessed during the study based on RANO criteria. […] Outcomes analysis of cohort 6 is ongoing. These preliminary data support continued exploration of higher dose cohorts.

[5] = secondary brain tumor patients, n = 6

## dianhydrogalactitol
[1]; CSC and non-CSC cultures, FACS profiles (FIGS. 7-9)
  cell death, concentration compared with temozolomide: cause cell death at lower concentrations than temozolomide
[1]; VAL-083 1, 5, 25 and 100 μM, cell cycle analysis 4 days post treatment, paired CSC and non-CSC
  cell cycle arrest in TMZ-resistant cultures: exhibited sensitivity to VAL-083, even at single-micromolar doses
[1]; all cultures tested, independent of MGMT status and stem versus non-stem
  cell cycle arrest and loss of cell viability, summary: cell cycle arrest and loss of cell viability in nearly all cultures tested
[1]; washed out after 3 hours versus left on, 7996 GNS, 8279 GNS, 7996 ML, 8565 ML
  effect of duration of drug exposure on cell cycle: less effect when washed out after 3 hours
[2]; GBM, Eagan (1979), Stupp (2005)
  Median O.S. (XRT + Chemo): 67 weeks
[2]; cumulative IV dose of 125 mg/m^2 in a 35 day cycle, brain cancer, Eagan 1979
  efficacy in combination with radiation versus radiation alone: superior to radiation alone
[3]; 4° C.
  stability of stock solution: 24 h
[3]; room temperature
  stability of stock solution: 4 h
[4]; 1.5 mg/m^2, cumulative 9 mg/m^2 in 33-day cycle
  Status (DLT): Completed - No DLT
[4]; 3.0 mg/m^2, cumulative 18 mg/m^2 in 33-day cycle
  Status (DLT): Completed - No DLT
[4]; 5.0 mg/m^2, cumulative 30 mg/m^2 in 33-day cycle
  Status (DLT): Completed - No DLT
[4]; 10.0 mg/m^2, cumulative 60 mg/m^2 in 33-day cycle
  Status (DLT): Completed - NO DLT
[4]; 20.0 mg/m^2 (revised scheme), cumulative 120 mg/m^2 in 33-day cycle
  Status (DLT): Completed - NO DLT
[4]; 30.0 mg/m^2 (revised scheme), cumulative 180 mg/m^2 in 33-day cycle, analysis ongoing
  Status (DLT): Completed - No DLT
[4]; GBM patients, n = 8
  DLT: None
[4]
  drug-related serious adverse events: No drug-related serious adverse events have been detected
[4]; listed as Dianhydrogalactitol
  drug-related serious adverse events: no drug-related serious adverse events have been detected
[4]; five dose cohorts completed, not yet reached
  maximum tolerated dose (MTD), as 33 day cycle cumulative dose: > 120 mg/m^2
[4]; i.v. on days 1, 2, and 3 of each 21-day cycle, not reached
  maximum tolerated dose (MTD): > 30 mg/m^2
[4]; [5]
  DLT: None
  SAE: None (n = 5)
